Drawing on ChEMBL document CHEMBL3137381, “MMV Box Onchocerca lienalis screening set”, this text covers Motility for 42 compounds.

Assay type in all cases: functional
Test [1] deals with Onchocerca lienalis. Briefly: MMV: Percent motility assay at a compound concentration of 1.9e-7 M. Activity score legend: 3: Active, 2: Moderately active; 1: Inactive, 0: Toxic. Conditions: at 0.19 µM.
In test [2] the test system is Onchocerca lienalis. Briefly: MMV: Percent motility assay at a compound concentration of 1.25e-5 M. Activity score legend: 3: Active, 2: Moderately active; 1: Inactive, 0: Toxic. Conditions: at 12.5 µM.
Test [3] concerns Onchocerca lienalis. Briefly: MMV: Percent motility assay at a compound concentration of 3.1e-6 M. Activity score legend: 3: Active, 2: Moderately active; 1: Inactive, 0: Toxic. Conditions: at 3.1 µM.
Test [4] has as its system Onchocerca lienalis. Nature of the test: MMV: Percent motility assay at a compound concentration of 7.8e-7 M. Activity score legend: 3: Active, 2: Moderately active; 1: Inactive, 0: Toxic. Conditions: at 0.78 µM.

For `C[n+]1c2ccccc2nc2ccc(NCCO)cc21`, the Motility with Onchocerca lienalis [1], in the test with Onchocerca lienalis [2], in the test on Onchocerca lienalis [3] and in the test on Onchocerca lienalis [4] was 100% each time.

Turning to `Cc1ccc(-c2cc3c(nn2)-c2ccccc2C3=O)cc1`, the Motility in the test on Onchocerca lienalis [1], in the test on Onchocerca lienalis [2], with Onchocerca lienalis [3] and in the test on Onchocerca lienalis [4] was 100% throughout.

With `Cc1ccc(Nc2nc(-c3ccccn3)cs2)cc1`, the Motility in the test on Onchocerca lienalis [1], in the test with Onchocerca lienalis [2], in the test with Onchocerca lienalis [3] and in the test on Onchocerca lienalis [4] was 100% in each case.

Turning to `COc1cccc(O)c1CN1CCC2(CCCN(Cc3ccc(F)cc3)C2)C1` (stereo not drawn), the Motility with Onchocerca lienalis [1], in the test on Onchocerca lienalis [2], in the test with Onchocerca lienalis [3] and with Onchocerca lienalis [4] was 100% each time.

For the compound `O=C(NCc1ccco1)C1CCN(S(=O)(=O)c2ccc(Cl)cc2)CC1`, the Motility in the test with Onchocerca lienalis [1], in the test with Onchocerca lienalis [2], in the test on Onchocerca lienalis [3] and with Onchocerca lienalis [4] was 100% in each case.

With `FC(F)(F)c1ccc(Nc2nnnc3ccccc23)cc1`, the Motility with Onchocerca lienalis [1], in the test on Onchocerca lienalis [2], with Onchocerca lienalis [3] and in the test with Onchocerca lienalis [4] was 100% in each case.

Turning to `c1ccc(-c2ccc(-c3nc4ccccc4[nH]3)cc2)cc1`, the Motility is listed as 100% in the test on Onchocerca lienalis [1], 66.6% in the test with Onchocerca lienalis [2], 100% in the test with Onchocerca lienalis [3] and 100% in the test on Onchocerca lienalis [4].

Take `CCC(C)NCC(O)(c1ccc(Cl)cc1)c1ccc(Cl)cc1` (stereo not drawn): the Motility in the test on Onchocerca lienalis [1], in the test on Onchocerca lienalis [2], in the test with Onchocerca lienalis [3] and with Onchocerca lienalis [4] was 100% throughout.

For the compound `COc1cccc(NC(=O)Cn2c(C)c(C#N)c3ccccc32)c1`, the Motility with Onchocerca lienalis [1], in the test on Onchocerca lienalis [2], in the test with Onchocerca lienalis [3] and in the test on Onchocerca lienalis [4] was 100% in each case.

Consider `COCCNC(=O)c1ccc(OC2CCN(Cc3ccc(F)c(F)c3)CC2)c(Cl)c1`, for which the Motility is listed as 100% in the test on Onchocerca lienalis [1], 46.6% with Onchocerca lienalis [2], 100% in the test with Onchocerca lienalis [3] and 100% with Onchocerca lienalis [4].

For `CC(C)=CCN1CCC(C(=O)Nc2ccc(-c3nc4ccccc4[nH]3)cc2)CC1`, the Motility with Onchocerca lienalis [1], in the test with Onchocerca lienalis [2], in the test with Onchocerca lienalis [3] and in the test on Onchocerca lienalis [4] was 100% throughout.

Take `O=C(CCc1ccco1)NC1CCN(CC2(c3ccc(Cl)cc3)CCC2)CC1`: the Motility with Onchocerca lienalis [1], with Onchocerca lienalis [2], with Onchocerca lienalis [3] and in the test with Onchocerca lienalis [4] was 100% throughout.

In the case of `CCN1CCN(c2cc(C)c3cc(NC(=O)c4ccc(OC)c(OC)c4)ccc3n2)CC1`, the Motility in the test with Onchocerca lienalis [1], in the test with Onchocerca lienalis [2], in the test on Onchocerca lienalis [3] and in the test with Onchocerca lienalis [4] was 100% throughout.

As to `COc1ccc(C(=O)Nc2nonc2-c2ccc(OC)c(OC)c2)cc1Cl`, the Motility in the test on Onchocerca lienalis [1], in the test with Onchocerca lienalis [2], in the test on Onchocerca lienalis [3] and in the test with Onchocerca lienalis [4] was 100% throughout.

With `COCCN(C(=O)Cc1cccs1)C(C(=O)NCc1ccc(OC)cc1)c1ccc(C(C)C)cc1` (stereo not drawn), the Motility is reported as 100% in the test on Onchocerca lienalis [1], 46.6% in the test on Onchocerca lienalis [2], 100% in the test on Onchocerca lienalis [3] and 100% in the test on Onchocerca lienalis [4].

Consider `FC(F)(F)c1cccc(CNC2CCN(CCc3ccccc3)CC2)c1`, for which the Motility in the test on Onchocerca lienalis [1], in the test with Onchocerca lienalis [2], with Onchocerca lienalis [3] and in the test on Onchocerca lienalis [4] was 100% each time.

For `Oc1ccc(Cl)cc1CNc1nc2ccccc2[nH]1`, the Motility in the test with Onchocerca lienalis [1] was 100%; with Onchocerca lienalis [2], 66.6%; with Onchocerca lienalis [3] it was 100%; in the test with Onchocerca lienalis [4] it was 100%.

With `CCOc1cc(Cl)c(C(C)NC(=O)c2ccccc2)cc1OCC` (stereo not drawn), the Motility in the test with Onchocerca lienalis [1], in the test on Onchocerca lienalis [2], in the test with Onchocerca lienalis [3] and in the test with Onchocerca lienalis [4] was 100% throughout.

With `O=C(c1ccccc1F)N(Cc1ccc(Cl)cc1)c1ccccn1`, the Motility in the test with Onchocerca lienalis [1], in the test with Onchocerca lienalis [2], in the test with Onchocerca lienalis [3] and in the test with Onchocerca lienalis [4] was 100% each time.

As for `COc1ccc(C(=O)Nc2ccc(Cl)cc2C(=O)Nc2ccncc2)cc1`, the Motility in the test with Onchocerca lienalis [1], with Onchocerca lienalis [2], with Onchocerca lienalis [3] and in the test on Onchocerca lienalis [4] was 100% throughout.

`O=C(Nc1ccc(Cl)cc1)N1CCN(c2ccc3nncn3n2)CC1`: the Motility in the test on Onchocerca lienalis [1], in the test on Onchocerca lienalis [2], in the test on Onchocerca lienalis [3] and in the test on Onchocerca lienalis [4] was 100% throughout.

Turning to `CN(C)c1ccc(-c2nc3cc(N)ccc3[nH]2)cc1`, the Motility came out at 100% in the test with Onchocerca lienalis [1], 33.33% in the test on Onchocerca lienalis [2], 66.66% in the test on Onchocerca lienalis [3] and 100% in the test with Onchocerca lienalis [4].

As to `O=C(CSc1ccc2nnc(-c3cccc(F)c3)n2n1)Nc1ccc2c(c1)OCO2`, the Motility in the test with Onchocerca lienalis [1], with Onchocerca lienalis [2], in the test with Onchocerca lienalis [3] and in the test on Onchocerca lienalis [4] was 100% throughout.

On to `Cc1c(C)n(Cc2ccc(F)cc2)c2ccc(C(=O)NCc3ccco3)cc12`, for which the Motility in the test on Onchocerca lienalis [1], in the test on Onchocerca lienalis [2], in the test on Onchocerca lienalis [3] and in the test on Onchocerca lienalis [4] was 100% each time.

For `CCCCNCC(O)(c1ccc(Cl)cc1)c1ccc(Cl)cc1`, the Motility in the test with Onchocerca lienalis [1], in the test with Onchocerca lienalis [2], in the test with Onchocerca lienalis [3] and with Onchocerca lienalis [4] was 100% each time.

`CCn1c(SCC(=O)Nc2cc(C(F)(F)F)ccc2Cl)nc2ccccc2c1=O`: the Motility in the test on Onchocerca lienalis [1], in the test with Onchocerca lienalis [2], with Onchocerca lienalis [3] and in the test on Onchocerca lienalis [4] was 100% in each case.

Regarding `Cc1ccc(Cn2c(N3CCC(C(=O)NCc4cccs4)CC3)nc3ccccc32)cc1`, the Motility in the test on Onchocerca lienalis [1], in the test with Onchocerca lienalis [2], in the test with Onchocerca lienalis [3] and in the test with Onchocerca lienalis [4] was 100% in each case.

For the compound `O=C(Nc1ccc(Cl)cc1C(=O)Nc1ccncc1)c1ccc(Cl)cc1Cl`, the Motility in the test on Onchocerca lienalis [1], in the test on Onchocerca lienalis [2], in the test with Onchocerca lienalis [3] and with Onchocerca lienalis [4] was 100% throughout.

For `O=C(Nc1cccc(C(F)(F)F)c1)c1cc(Cl)ccc1O`, the Motility in the test with Onchocerca lienalis [1] was 100%; with Onchocerca lienalis [2], 0%; in the test with Onchocerca lienalis [3], 53.33%; with Onchocerca lienalis [4], 100%.

For `CCOc1cccc2sc(N(Cc3cccnc3)C(=O)C3CCCCC3)nc12`, the Motility with Onchocerca lienalis [1], with Onchocerca lienalis [2], with Onchocerca lienalis [3] and with Onchocerca lienalis [4] was 100% in each case.

With `CCOc1ccc(-c2nonc2NC(=O)c2cccc(C)c2)cc1OCC`, the Motility in the test on Onchocerca lienalis [1], in the test with Onchocerca lienalis [2], in the test on Onchocerca lienalis [3] and in the test with Onchocerca lienalis [4] was 100% each time.

In the case of `CC(C)(C)CC(C)(C)NCC(O)COc1ccc2c(c1)CCC2.Cl` (stereo not drawn), the Motility with Onchocerca lienalis [1], in the test on Onchocerca lienalis [2], with Onchocerca lienalis [3] and in the test with Onchocerca lienalis [4] was 100% in each case.

As to `CCOc1ccc(/C=C/c2nc(=O)c3ccccc3o2)cc1`, the Motility with Onchocerca lienalis [1], with Onchocerca lienalis [2], with Onchocerca lienalis [3] and with Onchocerca lienalis [4] was 100% each time.

As to `O=C(Nc1ccccc1O)c1ccc(-c2ccc(Cl)cc2Cl)o1`, the Motility with Onchocerca lienalis [1], in the test on Onchocerca lienalis [2], in the test with Onchocerca lienalis [3] and in the test with Onchocerca lienalis [4] was 100% in each case.

In the case of `O=C(Nc1nc(-c2ccccn2)cs1)c1ccccc1Br`, the Motility in the test on Onchocerca lienalis [1] came out at 100%; with Onchocerca lienalis [2], 0%; with Onchocerca lienalis [3], 60%; in the test on Onchocerca lienalis [4], 100%.

Turning to `CC(O)(c1ccc(Cl)cc1)C(CN1CCCCC1)c1ccccc1.Cl` (stereo not drawn), the Motility in the test on Onchocerca lienalis [1] was 100%; with Onchocerca lienalis [2], 66.6%; with Onchocerca lienalis [3], 100%; in the test with Onchocerca lienalis [4], 100%.

Take `CCCCc1ccc(NS(=O)(=O)c2cc3c4c(c2)CCN4C(=O)CC3)cc1`: the Motility with Onchocerca lienalis [1], in the test with Onchocerca lienalis [2], with Onchocerca lienalis [3] and in the test on Onchocerca lienalis [4] was 100% in each case.

Regarding `CCOc1ccccc1CNC(=O)C1c2ccccc2C(=O)N(CC(C)C)C1c1cccs1` (stereo not drawn), the Motility in the test on Onchocerca lienalis [1], in the test with Onchocerca lienalis [2], in the test with Onchocerca lienalis [3] and with Onchocerca lienalis [4] was 100% throughout.

Regarding `CCOC(=O)c1ccc2nc(-c3ccccc3)cc(O)c2c1`, the Motility in the test with Onchocerca lienalis [1], in the test on Onchocerca lienalis [2], in the test on Onchocerca lienalis [3] and with Onchocerca lienalis [4] was 100% in each case.

As to `COc1ccc(C2Sc3ccccc3N=C3C2=C(O)c2ccccc23)cc1` (stereo not drawn), the Motility in the test on Onchocerca lienalis [1], in the test on Onchocerca lienalis [2], in the test on Onchocerca lienalis [3] and with Onchocerca lienalis [4] was 100% each time.

`CCN(CC)CCCNc1nc(-c2ccc(Cl)cc2)nc2ccccc12`: the Motility in the test with Onchocerca lienalis [1] was 100%; in the test with Onchocerca lienalis [2], 66.6%; with Onchocerca lienalis [3], 100%; in the test with Onchocerca lienalis [4], 100%.

For `CC1CCCCN1CCCNC(=O)c1ccc2c(c1)sc1nc(-c3ccc(F)cc3)cn12` (stereo not drawn), the Motility in the test on Onchocerca lienalis [1] is 100%; in the test on Onchocerca lienalis [2], 80%; in the test on Onchocerca lienalis [3] it was 100%; in the test on Onchocerca lienalis [4], 100%.
